From ChEMBL document CHEMBL6092209, “New Discorhabdin D Analogues from Latrunculia spp. Sponges” (2024)
Active and inactive are the calls of the source. No cut-off for these calls is given here.

Legend:
[1] = system: Panel NCI-60 (60 carcinoma cell lines); test: Growth inhibition of human Panel NCI-60 (60 carcinoma cell lines) cells at 10 uM; assay type: functional, cell-based
[2] = system: Panel NCI-60 (60 carcinoma cell lines); test: Growth inhibition of human Panel NCI-60 (60 carcinoma cell lines) cells; assay type: functional

Compound	Activity [1]	GI50 [2] [µM]
N[C@@H](CCC(=O)N[C@@H](CS[C@H]1[C@H]2C(=O)C=C3S[C@H]4C[C@]31C1=C(N4)C(=O)c3[nH]cc4c3C1=[N+]2CC4)C(=O)NCC(=O)O)C(=O)O	inactive	> 10
O=C1C2=C3C4=[N+](CCc5c[nH]c1c54)[C@@H]1C(=O)C=C4S[C@@H](C[C@@]43[C@H]1O)N2	–	0.79
N[C@H](CS[C@H]1[C@H]2C(=O)C=C3S[C@H]4C[C@]31C1=C(N4)C(=O)c3[nH]cc4c3C1=[N+]2CC4)C(=O)O	inactive	> 10
O=C(O)CN[C@H]1[C@H]2C(=O)C=C3S[C@H]4C[C@]31C1=C(N4)C(=O)c3[nH]cc4c3C1=[N+]2CC4	–	16.9
COC(=O)CN[C@H]1[C@H]2C(=O)C=C3S[C@H]4C[C@]31C1=C(N4)C(=O)c3[nH]cc4c3C1=[N+]2CC4	–	2.45
N[C@@H](CS[C@H]1[C@H]2C(=O)C=C3S[C@H]4C[C@]31C1=C(N4)C(=O)c3[nH]cc4c3C1=[N+]2CC4)C(=O)NCC(=O)O	inactive	> 10
N[C@@H](CS[C@H]1[C@H]2C(=O)C=C3S[C@H]4C[C@]31C1=C(N4)C(=O)c3[nH]cc4c3C1=[N+]2CC4)C(=O)O	inactive	> 10
O=C1C=C(S[C@H]2[C@H]3C(=O)C=C4S[C@H]5C[C@]42C2=C(N5)C(=O)c4[nH]cc5c4C2=[N+]3CC5)[C@]2(C=C1Br)CCNC1=C2C2=NCCc3c[nH]c(c32)C1=O	–	4.8
Cn1cnc(S[C@H]2[C@H]3C(=O)C=C4S[C@H]5C[C@]42C2=C(N5)C(=O)c4[nH]cc5c4C2=[N+]3CC5)c1C[C@H](N)C(=O)O	–	> 10
O=C1C2=C3C4=[N+](CCc5c[nH]c1c54)[C@H]1C[C@@]34C[C@@H](N2)SC4=CC1=O	–	0.8
COc1cccc2c1C(=O)c1c(O)c3c(c(O)c1C2=O)C[C@@](O)(C(=O)CO)C[C@@H]3O[C@H]1C[C@H](N)[C@H](O)[C@H](C)O1 [DOXORUBICIN]	–	0.12
